The record followed here is patent publication US10787435B2, “ASK1 inhibitor and preparation method and use thereof” (FUJIAN COSUNTER PHARMACEUTICAL CO., LTD., priority 2017, dated 2020).

The structures appear in SMILES notation. A value given as a limit tells only on which side of the number the result lay.

The nature of data set [1]: Studies on pharmacokinetic properties in mice (plasma concentration by LC-MS/MS). As to conditions: C57BL/6 male mice, dose not stated; for Exposure: intravenous or oral administration; for bioavailability: mouse, po, intragastric vs tail vein. The class given is in vivo. How it is done:
Example 2: Studies on Pharmacokinetic Properties
C57BL/6 male mice were used as subject animals in the study. The concentration of the drug in the plasma of mice injected intravenously or administrated orally with the test compound was quantified at different time points by using a LC/MS/MS method to evaluate the pharmacokinetic characteristics of the test drug in mice.
A clear solution of the test compound was injected into C57BL/6 mice (overnight-fasted, 7-10 weeks old) via the tail vein, and the test compound was intragastrically administered to C57BL/6 mice (overnight-fasted, 7-10 weeks old). Approximately 30 μL of blood was collected from each animal via the jugular vein or tail vein at 0.0833, 0.25, 0.5, 1, 2, 4, 6, 8 and 24 hours after administration, and placed in an anticoagulant tube supplemented with EDTA-K2. Centrifuged at 3000 g at 4° C. for 15 min, and the plasma was collected. The plasma concentration was determined by LC-MS/MS. The pharmacokinetic parameters were calculated by using the non-compartment model and linear logarithmic trapezoidal method using the pharmacokinetic software WinNonlin™ Version 6.3 (Pharsight, Mountain View, Calif.).

The target in data set [2] is ASK1/MAP3K5 (Homo sapiens (Human), UniProt Q99683). Put plainly: Evaluation of in vitro enzyme activity (33P-ATP radiometric kinase assay, MBP substrate). The settings on record: recombinant human full length GST-tagged ASK1 20 nM, MBP 20 μM. The class given is biochemical. How it is done:
Example 1: Evaluation of In Vitro Enzyme Activity
Base Reaction Buffer: 20 mM Hepes (pH 7.5), 10 mM MgCl2, 1 mM EGTA, 0.02% Brij35, 0.02 mg/ml BSA, 0.1 mM Na3VO4, 2 mM DTT, 1% DMSO
The test compound was formulated into a 10 mM stock solution in DMSO, which was diluted into 10 concentrations in 3-fold degression, and placed in a 384-well plate (Cyclic Olefin Copolymer LDV Echo®).
Kinase Name: ASK1/MAP3K5 (Invitrogen, Carlsbad, Calif.)
Type: Recombinant Human Full Length Protein, GST-tagged
Final concentration of the enzyme: 20 nM
Substrate: Myelin basic protein, MBP (Active Motif, Carlsbad, Calif.)
Final concentration of the substrate: 20 μM
1. The substrate was dissolved in a freshly prepared base reaction buffer.
2. A desired coenzyme was added to the above substrate solution.
3. The kinase was added to the substrate solution and mixed slowly.
4. The solution of the test compound in DMSO was added to the kinase reaction solution and incubated at room temperature for 20 minutes.
5. ^33P-ATP (specific activity of 10 μCi/μl) was added to the reaction solution to initiate the reaction.
6. Incubated at room temperature for 2 hours.
7. A small portion of the reactants was placed onto a P-81 ion exchange filter paper.
8. The filter paper was washed three times with 0.75% […] to wash off the unbound phosphate, and then the filter paper was dried.
9. The radioactivity remaining on the filter paper was determined.
10. Kinase activity data was expressed as the ratio of the kinase activity remaining in the test sample to the kinase activity in the vehicle (DMSO).
11. IC50 values and curve fits was obtained with Prism (GraphPad software).

Sequence of ASK1/MAP3K5 (Q99683 whole entry): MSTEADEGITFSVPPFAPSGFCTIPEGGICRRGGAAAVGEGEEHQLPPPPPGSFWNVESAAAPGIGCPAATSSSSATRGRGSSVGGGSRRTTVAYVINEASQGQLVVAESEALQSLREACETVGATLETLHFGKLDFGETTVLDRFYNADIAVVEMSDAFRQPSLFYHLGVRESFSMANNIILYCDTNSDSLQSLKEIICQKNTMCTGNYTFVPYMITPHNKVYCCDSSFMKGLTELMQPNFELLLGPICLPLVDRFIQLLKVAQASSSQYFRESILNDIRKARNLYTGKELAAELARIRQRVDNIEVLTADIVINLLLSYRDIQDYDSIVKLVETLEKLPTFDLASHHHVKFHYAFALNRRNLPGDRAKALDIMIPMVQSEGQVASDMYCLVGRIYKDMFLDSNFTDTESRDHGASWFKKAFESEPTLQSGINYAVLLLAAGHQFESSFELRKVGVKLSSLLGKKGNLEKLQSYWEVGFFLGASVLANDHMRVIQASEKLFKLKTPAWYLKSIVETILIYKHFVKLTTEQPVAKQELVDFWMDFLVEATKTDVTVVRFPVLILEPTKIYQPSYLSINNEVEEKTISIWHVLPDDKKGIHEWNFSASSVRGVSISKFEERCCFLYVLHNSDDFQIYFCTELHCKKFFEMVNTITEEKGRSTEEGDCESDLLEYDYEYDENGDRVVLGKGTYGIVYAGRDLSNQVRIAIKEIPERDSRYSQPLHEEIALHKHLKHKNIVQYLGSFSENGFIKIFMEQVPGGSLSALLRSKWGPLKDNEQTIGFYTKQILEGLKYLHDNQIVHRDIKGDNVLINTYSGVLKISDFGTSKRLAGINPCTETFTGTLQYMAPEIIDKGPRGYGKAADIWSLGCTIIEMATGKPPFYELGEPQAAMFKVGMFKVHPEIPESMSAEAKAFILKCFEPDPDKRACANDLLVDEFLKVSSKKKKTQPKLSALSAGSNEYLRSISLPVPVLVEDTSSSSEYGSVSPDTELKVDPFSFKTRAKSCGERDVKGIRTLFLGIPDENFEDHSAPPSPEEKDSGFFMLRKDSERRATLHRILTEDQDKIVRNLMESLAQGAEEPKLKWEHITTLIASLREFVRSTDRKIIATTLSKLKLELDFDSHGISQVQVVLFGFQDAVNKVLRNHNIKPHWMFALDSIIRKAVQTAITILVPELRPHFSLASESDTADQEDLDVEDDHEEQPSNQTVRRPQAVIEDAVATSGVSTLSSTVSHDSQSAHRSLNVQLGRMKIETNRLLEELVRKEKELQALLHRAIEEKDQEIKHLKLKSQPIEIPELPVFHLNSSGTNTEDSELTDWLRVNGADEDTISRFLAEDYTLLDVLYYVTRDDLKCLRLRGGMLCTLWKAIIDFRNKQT

Turning to `CC(C)n1cnnc1-c1cccc(N2CCc3ccc(-n4cnc(C5CC5)c4)cc3C2=O)n1` [Example 001], in data set [1], the Exposure came out at 69.652 µM·h and the bioavailability was determined as 133%. In data set [2], the IC50 was no more than 50 nM.

As to `Cc1cc2c(cc1-n1cnc(C3CC3)c1)C(=O)N(c1cccc(-c3nncn3C(C)C)n1)CC2` [Example 002], in data set [1], the Exposure turned out to be 29.277 µM·h and the bioavailability worked out at 92%. Further, the IC50 in data set [2] is no more than 50 nM.

On to `Cc1cc2c(cc1-n1cnc(C3CC3)c1)C(=O)N(c1cccc(-c3nnc4n3CCCC4)n1)CC2` [Example 009], for which, in data set [1], the Exposure came out at 89.099 µM·h and the bioavailability was 115%. Further, the IC50 in data set [2] was no more than 50 nM.

The IC50 is the concentration at which inhibition is half-maximal.
